Source: ChEMBL document CHEMBL1143588, “Novel and potent 17beta-hydroxysteroid dehydrogenase type 1 inhibitors” (J Med Chem, 2005)

Legend:
Type in all cases: cell-based
[1] = biological target: T1, 17-beta-hydroxysteroid dehydrogenase type 1 (Homo sapiens) (UniProt P14061); assay: Inhibitory activity against 17 beta hydroxysteroid dehydrogenase type 1 at 10 uM in T47D cells
T1 sequence (whole entry): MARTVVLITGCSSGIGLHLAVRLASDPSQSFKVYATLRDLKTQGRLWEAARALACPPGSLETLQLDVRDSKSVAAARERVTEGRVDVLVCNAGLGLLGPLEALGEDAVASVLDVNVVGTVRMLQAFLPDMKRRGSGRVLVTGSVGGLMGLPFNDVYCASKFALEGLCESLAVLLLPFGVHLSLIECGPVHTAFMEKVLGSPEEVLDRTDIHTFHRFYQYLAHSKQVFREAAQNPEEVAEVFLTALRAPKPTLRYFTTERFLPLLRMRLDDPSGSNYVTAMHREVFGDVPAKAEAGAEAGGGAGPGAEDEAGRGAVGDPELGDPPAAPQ

[2] = biological target: T2, 17-beta-hydroxysteroid dehydrogenase type 1 (Homo sapiens, UniProt P14061); assay: Inhibitory activity against 17 beta hydroxysteroid dehydrogenase type 1 in T47D cells
T2 sequence (P14061 whole entry): T1 sequence (whole entry)

[3] = biological target: T3, 17-beta-hydroxysteroid dehydrogenase type 2 (Homo sapiens) (UniProt P37059); assay: Inhibitory activity against 17 beta hydroxysteroid dehydrogenase type 2 at 10 uM in MDA-MB-231 cells
T3 sequence (whole entry): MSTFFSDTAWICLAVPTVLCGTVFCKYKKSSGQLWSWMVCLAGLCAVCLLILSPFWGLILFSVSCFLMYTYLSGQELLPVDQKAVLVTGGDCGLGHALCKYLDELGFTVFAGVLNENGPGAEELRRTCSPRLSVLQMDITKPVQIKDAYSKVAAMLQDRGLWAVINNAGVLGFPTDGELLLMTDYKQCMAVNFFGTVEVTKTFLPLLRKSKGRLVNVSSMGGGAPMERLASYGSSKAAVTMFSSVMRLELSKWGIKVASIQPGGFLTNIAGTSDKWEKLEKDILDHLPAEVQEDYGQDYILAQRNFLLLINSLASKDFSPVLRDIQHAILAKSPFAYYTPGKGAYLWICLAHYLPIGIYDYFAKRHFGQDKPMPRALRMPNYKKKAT

Row | SMILES | inhibition [1] | IC50 [2] | inhibition [3]
1 | C[C@]12CC[C@@H]3c4ccc(O)cc4CCC3[C@@H]1CC(CC(=O)NCc1cccnc1)C2=O (single isomer, unassigned) | 97% | 37 nM | 26%
2 | CCc1cc2c(cc1O)CCC1[C@@H]2CC[C@]2(C)C(=O)C(CC(=O)NCc3cccnc3)C[C@@H]12 (single isomer, unassigned) | 99% | 27 nM | -5%
3 | COc1cc2c(cc1O)CCC1[C@@H]2CC[C@]2(C)C(=O)C(CC(=O)NCc3cccnc3)C[C@@H]12 (single isomer, unassigned) | 96% | 290 nM | 0%
